Data set [1] is described as follows: Rat single dose pharmacokinetics. In kind it is in vivo, Sprague Dawley rats. The conditions noted are these: male, Sprague Dawley, plasma, IV; for Vd: read-out: Vss. On the procedure:
Male Sprague Dawley rats were obtained from Zhejiang Vital River Laboratory Animal Technology Co., Ltd. The animals in IV group had free access to water and food. The animals in PO group were fasted overnight before dosing and provided with food 2 hours post dosing. The IV dose solution was prepared in 10% DMA/50% PG/40% HPβCD solution (40% w/v aqueous HPβCD) at a concentration of 1 mg/mL. The oral dosing suspension was prepared by suspending Test Article in 0.5% HPMC/0.1% Tween 80 in water at a concentration 0.2 mg/mL. Concentrations of IV and PO doses were measured at the end of the study. Pharmacokinetic parameters were calculated using the nominal dose values if the measured values were within 20% of the nominal values. Three rats were dosed IV via a bolus injection via caudal vein. Three rats per dose group were dosed by oral gavage. Blood samples were collected from the jugular vein cannula at predose, 5 (IV only), 15, 30 minutes, and 1, 2, 4, 6, and 24 hours post-dose. Blood volumes were replaced with an equal amount of sterile 0.9% saline. Blood samples were centrifuged and the collected plasma was stored at −80° C. for subsequent analysis. Plasma samples were analyzed for Test Article concentrations using a LC/MS/MS method. Briefly, a 50 μL aliquot of each plasma sample was mixed with 100 μL of acetonitrile that contained an internal standard. The mixture was vortexed and centrifuged. Ten (10) […] of the resulting solution was injected onto a reverse-phase C18 column and the resultant peaks detected on a LC/MS/MS equipped with a turbo ionspray ionization source. Sample concentrations below the limit of quantification (BLQ) were treated as zero for pharmacokinetic calculations. Pharmacokinetic parameters were estimated from individual animals using noncompartmental analysis of the concentration-time data (Phoenix WinNonLin software, version 64; Pharsight, Mountain View, CA). The elimination rate constant (k) was calculated as the absolute value of the slope of the linear regression of logarithm (log) of the concentration versus time for the last three data points of the concentration-time profiles. Apparent elimination half-life (t1/2) values were calculated as ln(2)/k. Area under the concentration-time curve (AUC) values were estimated using linear trapezoidal method. AUCt values were calculated from the dosing time to the last measurable concentration. AUC∞ values were calculated as the sum of the corresponding AUCt and the ratio of the last detectable concentration divided by k (AUCt-∞). Plasma clearance (CL) was calculated from Dose/AUC∞. Mean resident time (MRT) was estimated by moment analysis. Volume of distribution at steady state (Vss) was calculated from MRT∞×CL. Maximum concentration (Cmax) and time to reach Cmax (tmax) were recorded as observed. Bioavailability was calculated from the ratio of dose normalized AUC∞,po of individual rats/mean dAUC∞,iv×100% where dAUC was the dose normalized AUC value. Compounds tested were prepared in accordance with the synthetic procedures described herein.

A short description of data set [2]: Mouse single dose pharmacokinetics. In kind it is in vivo, C57BL/6 mice. The settings on record: male, C57BL/6, plasma, 0.5 mg/kg, IV; for Vd: read-out: Vss; for half-life: read-out: t½ (converted). As to the method: Male C57BL/6 mice (18-25 g, 6-8 weeks old) were obtained from Zhejiang Vital River Laboratory Animal Technology Co., Ltd. All animals for IV administration had free access to food and water. The IV dosing was performed through tail vein. The IV dose solution for the Test Articles was prepared in 10% DMA/20% PG/70% HPβCD solution (40% w/v aqueous HPβCD) at a concentration of 0.1 mg/mL. The oral dosing suspension was prepared by suspending Test Article in 0.5% HPMC/0.1% Tween 80 in water at a concentration 0.2 mg/mL. Concentrations of IV and PO doses were measured at the end of the study. Pharmacokinetic (PK) parameters were calculated using the nominal dose values if the measured values were within 20% of the nominal values. A group of 15 mice received the IV dose where the volume was 5 mL/kg. Another group of 15 mice received by oral gavage of Test Article at 1 mg/kg. The oral dose volume was 5 mL/kg. Sparse blood samples were collected from groups of three mice via retro-orbital bleeding, placed into a K2EDTA microtainer tube and maintained on ice until centrifugation to obtain plasma. Each designated group of mice were bled at two-time points. The time points were predose (PO only), 5 (IV only), 15, 30 minutes, 1, 2, 4, 6, 8 and 24 hours postdose. Blood samples were centrifuged and the collected plasma was stored at −80° C. until analysis. Plasma samples were analyzed for Test Article concentrations using an LC/MS/MS method. Briefly, a 50 μL aliquot of each plasma sample was mixed with 100 μL of acetonitrile that contained an internal standard (IS). The mixture was vortexed and centrifuged. Ten (10) μL of the resulting solution was injected onto a reverse-phase C18 column and the resultant peaks detected on a LC/MS/MS equipped with a turbo ionspray ionization source. Sample concentrations below the limit of quantification (BLQ) were treated as zero for PK calculations. Composite PK parameters were estimated from a maximum of two sampling points per mouse and three mice per sampling point and the sparse data option of WinNonlin was used for noncompartmental analysis of the concentration-time data (Phoenix WinNonLin software, version 64; Pharsight, Mountain View, CA). The elimination rate constant (k) was calculated as the absolute value of the slope of the linear regression of logarithm of the concentration versus time for the last three data points of the concentration-time profiles. Apparent elimination half-life (t1/2) values were calculated as ln(2)/k. Area under the concentration-time curve (AUC) values were estimated using linear trapezoidal method. AUCt values were calculated from the dosing time to the last measurable concentration. AUC∞ values were calculated as the sum of the corresponding AUCt and the ratio of the last detectable concentration divided by k. Plasma clearance (CL) was calculated from Dose/AUC∞. Mean resident time (MRT) was estimated by moment analysis. Volume of distribution at steady state (Vss) was calculated from MRT∞×CL. Maximum concentration (Cmax) and time to reach Cmax (tmax) were recorded as observed. Bioavailability was calculated dAUC∞,po/dAUC∞,iv×100% where dAUC was the dose normalized AUC value. Data for compounds tested are provided in Table B. Compounds tested were prepared in accordance with the synthetic procedures described herein.

For the compound `C[C@H]1CC[C@H](N2CC(=O)N(Cc3ccc(F)c(F)c3)C3(CN(C(N)=O)C3)C2=O)CC1` [Compound 5, 5-(3,4-difluorobenzyl)-8-((1r,4r)-4-methylcyclohexyl)-6,9-dioxo-2,5,8-triazaspiro[3.5]nonane-2-carboxamide], in data set [1], the clearance is 71.1 mL/min/kg, the half-life is 3.04 h and the Vd stood at 13.7 L/kg. For the same compound, in data set [2], the clearance was determined as 18.9 mL/min/kg, the Vd was determined as 4.08 L/kg and the half-life was 3.08 h.
As for `Cc1cc(CN2C(=O)CN([C@H]3CC[C@H](C)CC3)C(=O)C23CN(C(N)=O)C3)ccc1F` [Compound 6, 5-(4-fluoro-3-methylbenzyl)-8-((1r,4r)-4-methylcyclohexyl)-6,9-dioxo-2,5,8-triazaspiro[3.5]nonane-2-carboxamide], in data set [1], the clearance is 76.6 mL/min/kg, the half-life was 2 h and the Vd was determined as 10.1 L/kg. Moreover, in data set [2], the clearance came to 28.2 mL/min/kg, the Vd was 2.52 L/kg and the half-life is 1.27 h.
Take `C[C@H]1CC[C@H](N2CC(=O)N(Cc3ccc(F)c(Cl)c3)C3(CN(C(N)=O)C3)C2=O)CC1` [Compound 7, 5-(3-chloro-4-fluorobenzyl)-8-((1r,4r)-4-methylcyclohexyl)-6,9-dioxo-2,5,8-triazaspiro[3.5]nonane-2-carboxamide]: in data set [1], the clearance was found to be 61.9 mL/min/kg, the half-life was 2.1 h and the Vd is 12.6 L/kg. For the same compound, in data set [2], the clearance amounted to 15 mL/min/kg, the Vd was found to be 2.95 L/kg and the half-life is 2.5 h.
Turning to `CC(C)N1CC(=O)N(Cc2ccc(Cl)c(F)c2)C2(CN(c3cccnn3)C2)C1=O` [Compound 8, 5-(4-chloro-3-fluorobenzyl)-8-isopropyl-2-(pyridazin-3-yl)-2,5,8-triazaspiro[3.5]nonane-6,9-dione], in data set [1], the clearance came out at 79.9 mL/min/kg, the half-life is 1.2 h and the Vd was determined as 5.22 L/kg. For the same compound, in data set [2], the clearance worked out at 132 mL/min/kg, the Vd was 5.14 L/kg and the half-life is 0.66 h.
Regarding `CC(C)N1CC(=O)N(Cc2ccc(C(F)(F)F)cc2)C2(CN(c3cccnn3)C2)C1=O` [Compound 13, 8-isopropyl-2-(pyridazin-3-yl)-5-(4-(trifluoromethyl)benzyl)-2,5,8-triazaspiro[3.5]nonane-6,9-dione], in data set [1], the clearance is 38.9 mL/min/kg, the half-life is 0.95 h and the Vd turned out to be 2.17 L/kg. Besides, in data set [2], the clearance was 101 mL/min/kg, the Vd came out at 2.25 L/kg and the half-life is 0.46 h.
On to `C[C@H]1CC[C@H](N2CC(=O)N(Cc3ccc(Cl)cc3)C3(CN(C(N)=O)C3)C2=O)CC1` [Compound 18, 5-(4-chlorobenzyl)-8-((1r,4r)-4-methylcyclohexyl)-6,9-dioxo-2,5,8-triazaspiro[3.5]nonane-2-carboxamide], for which, in data set [1], the clearance was 63.6 mL/min/kg, the half-life is 2.15 h and the Vd turned out to be 9.48 L/kg. In data set [2], the clearance is 21 mL/min/kg, the Vd worked out at 2.95 L/kg and the half-life was 1.18 h.

What is called clearance is a measure of how efficiently the substance is removed, as volume per time. Read a high clearance as a high capacity for elimination.
